Laboratory results taken from US10470986B2, “Resorcinol compounds for dermatological use” (Conopco, Inc., priority 2013, dated 2019).

Legend:
[1] = system: mushroom tyrosinase (Sigma T3824); assay: Mushroom Tyrosinase Inhibition Assay; assay type: biochemical; conditions: 10 μM compound, 300 μM L-Tyrosine, 84 units/mL enzyme, pH 6.5, 15 min at room temperature
Method: 10 μM compound, 300 μM L-Tyrosine, and 84 units/mL of mushroom tyrosinase (Sigma T3824) were combined into 0.05 M potassium monophosphate buffer at pH=6.5, and incubated for 15 min at room temperature. Absorbance was recorded at 490 nm. % tyrosinase inhibition was calculated as follows: (AbsDMSO−Abscmpd)/AbsDMSO×100. The assay was performed for various compounds described herein, as well as for control compounds 4-ethyl resorcinol (4ER), 4-isopropylresorcinol (4IPR), 4-hexylresorcinol (4HR), 4-cyclohexylresorcinol (4CHR), 5-methylresorcinol (5MR), kojic acid (KA), and hydroquinone (HQ), structures of which are shown below.

B16F1 cells = assay: B16 Melanin Assay; assay type: cell-based; conditions: 1 mM Theophylline stimulated, 72 h, media absorbance 405 nm corrected for viability (Calcein-AM); compound concentration not stated
Method: After trypsinization, cells were seeded at 3,000 cells per well in a 96-well plate and allowed to attach overnight. 1 mM Theophylline was used to stimulate melanogenesis, and the compound of interest was added. […] (AbsDMSO/CalceinDMSO-[…]/CalceinDMSO×100. The assay was performed for various compounds described herein, as well as for control compounds 4ER, 4IPR, 4HR, 4CHR, 5MR kojic acid, and hydroquinone. Results are shown in Table 2.

MelanoDerm (Mel-300-B) = assay: Mattek 3D Skin Equivalents, MelanoDerm (Mel-300-B) assay; assay type: cell-based, human; conditions: every other day, 14 days
Description: Many people at different stages of their life are concerned with the degree of pigmentation of their skin and may wish to reduce the skin darkening, or may wish to lighten or even-tone their natural skin color. The mechanism by which skin pigmentation is formed, melanogenesis, is particularly complex and schematically involves the following main steps: Tyrosine→L-Dopa→Dopaquinone→Dopachrome→Melanins. The first two reactions in this series are catalyzed by the enzyme tyrosinase. The activity of tyrosinase is promoted by the action of a-melanocyte stimulating hormone or UV rays. It is well established that a substance has a depigmenting effect if it acts directly on the vitality of the epidermal melanocytes where melanogenesis normally occurs and/or if it interferes with one of the stages in melanin biosynthesis. Pigmentation disorders can take a variety of forms like hyperpigmentation, hypopigmentation, and uneven pigmentation, and include but are not limited to melasma (mask of pregnancy or chloasma), liver spots (which often develop with age) and leukoderma such as vitiligo. […] The degree of pigmentation disorders of the skin in many cases increases with the age of the individuals. Because of the involvement of tyrosinase in melanogensis, tyrosinase inhibition assays are often used to screen potential skin lightening agents. Some mushroom tyrosinases (such as that from Agaricus bisporus) are homologous with mammalian tyrosinase, and mushroom tyrosinase is often used in inhibition assays due to its ready commercial availability. However, the enzyme inhibition assays may not be as good an indicator of activity as assays which are more similar to the intended clinical or cosmetic use, such as the MatTek Corporation's MelanoDerm™ Skin Model (a system which consists of normal, human-derived epidermal keratinocytes and melanocytes formed into a multilayered model of human epidermis).
MelanoDerm (Mel-300-B) assay was conducted according to the manufacturer's instruction (MatTek Corporation). Every other day, the test articles were administered into the EPI-100-NMM-113 culture medium, and positive control, 25 uL of 2% Kojic acid was applied topically. After 14 days, tissue viability and melanocyte morphology were visually verified and tissue melanin was extracted and quantitated against a standard curve. % melanin was calculated as follows: (MelaninDMSO−Melanincomp)/MelaninDMSO×100. The assay was performed for various compounds described herein, as well as for control compounds 4ER, 4IPR, 4HR, 4CHR, kojic acid, and hydroquinone.

Cc1cc(O)cc(O)c1Cc1ccccc1 [4,5BnMR, 4-benzyl-5-methylbenzene-1,3-diol]
Mushroom Tyrosinase (% remaining enzyme activity), % TYR Activity [1]: 97%
B16 Media Melanin (% Melanin), % Melanin B16 (B16F1 cells): 86%
MatTek Assay (% Melanin), % Melanin 3D EpiDerm (MelanoDerm (Mel-300-B); 10 μM in culture medium): 82%
MatTek Assay (% Melanin), % Melanin 3D EpiDerm (MelanoDerm (Mel-300-B); 30 μM in culture medium): 61%

Oc1cc(O)c(Cc2ccccc2)c(C(F)(F)F)c1 [4,5BnTFMR, 2-Benzyl-1,5-dihydroxy-3-trifluoromethyl-benzene]
Mushroom Tyrosinase (% remaining enzyme activity), % TYR Activity [1]: 93%
B16 Media Melanin (% Melanin), % Melanin B16 (B16F1 cells): 82%
MatTek Assay (% Melanin), % Melanin 3D EpiDerm (MelanoDerm (Mel-300-B); 30 μM in culture medium): 75%

Oc1cc(O)c(C2CCCCC2)c(F)c1 [4,5CHFR, 4-cyclohexyl-5-fluorobenzene-1,3-diol]
Mushroom Tyrosinase (% remaining enzyme activity), % TYR Activity [1]: 1%
B16 Media Melanin (% Melanin), % Melanin B16 (B16F1 cells): 51%
MatTek Assay (% Melanin), % Melanin 3D EpiDerm (MelanoDerm (Mel-300-B); 10 μM in culture medium): 87%
MatTek Assay (% Melanin), % Melanin 3D EpiDerm (MelanoDerm (Mel-300-B); 30 μM in culture medium): 81%

Cc1cc(O)cc(O)c1C1CCCCC1 [4,5CHMR, 4-cyclohexyl-5-methylbenzene-1,3-diol]
Mushroom Tyrosinase (% remaining enzyme activity), % TYR Activity [1]: 22%
B16 Media Melanin (% Melanin), % Melanin B16 (B16F1 cells): 58%
MatTek Assay (% Melanin), % Melanin 3D EpiDerm (MelanoDerm (Mel-300-B); 10 μM in culture medium): 66%
MatTek Assay (% Melanin), % Melanin 3D EpiDerm (MelanoDerm (Mel-300-B); 30 μM in culture medium): 44%

Oc1cc(O)c(C2CCCCC2)c(C(F)(F)F)c1 [4,5CHTFMR]
Mushroom Tyrosinase (% remaining enzyme activity), % TYR Activity [1]: 100%
B16 Media Melanin (% Melanin), % Melanin B16 (B16F1 cells): 65%
MatTek Assay (% Melanin), % Melanin 3D EpiDerm (MelanoDerm (Mel-300-B); 10 μM in culture medium): 89%

Cc1cc(O)cc(O)c1C1CCCC1 [4,5CPMR, 4-cyclopentyl-5-methylbenzene-1,3-diol]
Mushroom Tyrosinase (% remaining enzyme activity), % TYR Activity [1]: 71%
B16 Media Melanin (% Melanin), % Melanin B16 (B16F1 cells): 61%
MatTek Assay (% Melanin), % Melanin 3D EpiDerm (MelanoDerm (Mel-300-B); 10 μM in culture medium): 65%
MatTek Assay (% Melanin), % Melanin 3D EpiDerm (MelanoDerm (Mel-300-B); 30 μM in culture medium): 55%

Cc1cc(O)cc(O)c1C1CC1 [4,5CPrMR, 4-cyclopropyl-5-methylbenzene-1,3-diol]
Mushroom Tyrosinase (% remaining enzyme activity), % TYR Activity [1]: 30%
B16 Media Melanin (% Melanin), % Melanin B16 (B16F1 cells): 62%
MatTek Assay (% Melanin), % Melanin 3D EpiDerm (MelanoDerm (Mel-300-B); 10 μM in culture medium): 99%
MatTek Assay (% Melanin), % Melanin 3D EpiDerm (MelanoDerm (Mel-300-B); 30 μM in culture medium): 82%

Oc1cc(O)c(C2CCCCC2)c(F)c1 [4,5EFR, 4-cyclohexyl-5-fluorobenzene-1,3-diol]
Mushroom Tyrosinase (% remaining enzyme activity), % TYR Activity [1]: 3%
B16 Media Melanin (% Melanin), % Melanin B16 (B16F1 cells): 87%

CCc1c(C)cc(O)cc1O [4,5EMR, 4-ethyl-5-methylbenzene-1,3-diol]
Mushroom Tyrosinase (% remaining enzyme activity), % TYR Activity [1]: 93%
B16 Media Melanin (% Melanin), % Melanin B16 (B16F1 cells): 69%
MatTek Assay (% Melanin), % Melanin 3D EpiDerm (MelanoDerm (Mel-300-B); 10 μM in culture medium): 102%
MatTek Assay (% Melanin), % Melanin 3D EpiDerm (MelanoDerm (Mel-300-B); 30 μM in culture medium): 79%

CCc1c(O)cc(O)cc1C(F)(F)F [4,5ETFMR, 2-Ethyl-1,5-dihydroxy-3-trifluoromethyl-benzene]
B16 Media Melanin (% Melanin), % Melanin B16 (B16F1 cells): 68%
MatTek Assay (% Melanin), % Melanin 3D EpiDerm (MelanoDerm (Mel-300-B); 10 μM in culture medium): 81%
MatTek Assay (% Melanin), % Melanin 3D EpiDerm (MelanoDerm (Mel-300-B); 30 μM in culture medium): 66%

CCCCCCc1c(C)cc(O)cc1O [4,5HMR, 4-hexyl-5-methylbenzene-1,3-diol]
Mushroom Tyrosinase (% remaining enzyme activity), % TYR Activity [1]: 10%
B16 Media Melanin (% Melanin), % Melanin B16 (B16F1 cells): 78%
MatTek Assay (% Melanin), % Melanin 3D EpiDerm (MelanoDerm (Mel-300-B); 10 μM in culture medium): 77%
MatTek Assay (% Melanin), % Melanin 3D EpiDerm (MelanoDerm (Mel-300-B); 30 μM in culture medium): 68%

Cc1cc(O)cc(O)c1C(C)C [4,5IPMR, 4-isopropyl-5-methylbenzene-1,3-diol]
B16 Media Melanin (% Melanin), % Melanin B16 (B16F1 cells): 71%
MatTek Assay (% Melanin), % Melanin 3D EpiDerm (MelanoDerm (Mel-300-B); 10 μM in culture medium): 102%
MatTek Assay (% Melanin), % Melanin 3D EpiDerm (MelanoDerm (Mel-300-B); 30 μM in culture medium): 72%

Cc1cc(O)cc(O)c1CC1CCCC1 [4,5MCPMR, 4-cyclopentylmethyl-5-methylbenzene-1,3-diol]
Mushroom Tyrosinase (% remaining enzyme activity), % TYR Activity [1]: 32%
B16 Media Melanin (% Melanin), % Melanin B16 (B16F1 cells): 90%
MatTek Assay (% Melanin), % Melanin 3D EpiDerm (MelanoDerm (Mel-300-B); 10 μM in culture medium): 94%
MatTek Assay (% Melanin), % Melanin 3D EpiDerm (MelanoDerm (Mel-300-B); 30 μM in culture medium): 72%

Cc1cc(O)cc(O)c1C(C)c1ccccc1 (centres unmarked) [4,5PEMR, 4-(1-phenylethyl)-5-methylbenzene-1,3-diol]
B16 Media Melanin (% Melanin), % Melanin B16 (B16F1 cells): 87%
MatTek Assay (% Melanin), % Melanin 3D EpiDerm (MelanoDerm (Mel-300-B); 10 μM in culture medium): 98%
MatTek Assay (% Melanin), % Melanin 3D EpiDerm (MelanoDerm (Mel-300-B); 30 μM in culture medium): 62%

Cc1cc(O)cc(O)c1CC(F)(F)F [4,5TFEMR, 4-(2,2,2-trifluoroethyl)-5-methylbenzene-1,3-diol]
B16 Media Melanin (% Melanin), % Melanin B16 (B16F1 cells): 90%
MatTek Assay (% Melanin), % Melanin 3D EpiDerm (MelanoDerm (Mel-300-B); 10 μM in culture medium): 81%
MatTek Assay (% Melanin), % Melanin 3D EpiDerm (MelanoDerm (Mel-300-B); 30 μM in culture medium): 72%

CCC(C)c1c(C)cc(O)cc1O (centres unmarked) [4,5sBMR, 4-sec-butyl-5-methylbenzene-1,3-diol]
Mushroom Tyrosinase (% remaining enzyme activity), % TYR Activity [1]: 100%
B16 Media Melanin (% Melanin), % Melanin B16 (B16F1 cells): 76%
MatTek Assay (% Melanin), % Melanin 3D EpiDerm (MelanoDerm (Mel-300-B); 10 μM in culture medium): 75%
MatTek Assay (% Melanin), % Melanin 3D EpiDerm (MelanoDerm (Mel-300-B); 30 μM in culture medium): 67%

Oc1ccc(C2CCCCC2)c(O)c1 [Compound 4CHR, 4-cyclohexylresorcinol, reference compound]
Mushroom Tyrosinase (% remaining enzyme activity), % TYR Activity [1]: 0%
B16 Media Melanin (% Melanin), % Melanin B16 (B16F1 cells): 63%
MatTek Assay (% Melanin), % Melanin 3D EpiDerm (MelanoDerm (Mel-300-B); 10 μM in culture medium): 65%
MatTek Assay (% Melanin), % Melanin 3D EpiDerm (MelanoDerm (Mel-300-B); 30 μM in culture medium): 36%

CCc1ccc(O)cc1O [Compound 4ER, 4-ethyl resorcinol, reference compound]
Mushroom Tyrosinase (% remaining enzyme activity), % TYR Activity [1]: 2%
B16 Media Melanin (% Melanin), % Melanin B16 (B16F1 cells): 48%
MatTek Assay (% Melanin), % Melanin 3D EpiDerm (MelanoDerm (Mel-300-B); 10 μM in culture medium): 84%
MatTek Assay (% Melanin), % Melanin 3D EpiDerm (MelanoDerm (Mel-300-B); 30 μM in culture medium): 61%

CCCCCCc1ccc(O)cc1O [Compound 4HR, 4-hexylresorcinol, reference compound]
Mushroom Tyrosinase (% remaining enzyme activity), % TYR Activity [1]: 1%
B16 Media Melanin (% Melanin), % Melanin B16 (B16F1 cells): 71%
MatTek Assay (% Melanin), % Melanin 3D EpiDerm (MelanoDerm (Mel-300-B); 10 μM in culture medium): 93%
MatTek Assay (% Melanin), % Melanin 3D EpiDerm (MelanoDerm (Mel-300-B); 30 μM in culture medium): 72%

CC(C)c1ccc(O)cc1O [Compound 4IPR, 4-isopropylresorcinol, reference compound]
Mushroom Tyrosinase (% remaining enzyme activity), % TYR Activity [1]: 1%
B16 Media Melanin (% Melanin), % Melanin B16 (B16F1 cells): 77%
MatTek Assay (% Melanin), % Melanin 3D EpiDerm (MelanoDerm (Mel-300-B); 10 μM in culture medium): 71%
MatTek Assay (% Melanin), % Melanin 3D EpiDerm (MelanoDerm (Mel-300-B); 30 μM in culture medium): 46%

Cc1cc(O)cc(O)c1 [Compound 5MR, 5-methylresorcinol, reference compound]
Mushroom Tyrosinase (% remaining enzyme activity), % TYR Activity [1]: 100%
B16 Media Melanin (% Melanin), % Melanin B16 (B16F1 cells): 100%

Oc1ccc(O)cc1 [Hydroquinone, hydroquinone, reference compound]
Mushroom Tyrosinase (% remaining enzyme activity), % TYR Activity [1]: 100%
B16 Media Melanin (% Melanin), % Melanin B16 (B16F1 cells): 100%
MatTek Assay (% Melanin), % Melanin 3D EpiDerm (MelanoDerm (Mel-300-B); 10 μM in culture medium): 94%
MatTek Assay (% Melanin), % Melanin 3D EpiDerm (MelanoDerm (Mel-300-B); 30 μM in culture medium): 92%

O=c1cc(CO)occ1O [Kojic Acid, kojic acid, reference compound]
Mushroom Tyrosinase (% remaining enzyme activity), % TYR Activity [1]: 84%
B16 Media Melanin (% Melanin), % Melanin B16 (B16F1 cells): 100%
MatTek Assay (% Melanin), % Melanin 3D EpiDerm (MelanoDerm (Mel-300-B); 10 μM in culture medium): 100%
MatTek Assay (% Melanin), % Melanin 3D EpiDerm (MelanoDerm (Mel-300-B); 30 μM in culture medium): 100%
MatTek Assay (% Melanin), % Melanin 3D EpiDerm (MelanoDerm (Mel-300-B); positive control, 25 uL of 2% Kojic acid applied topically): 75%
